Experimental findings from BindingDB's records for doi:10.1124/jpet.102.047183 (Abbott Laboratories, 2003) are described below.

Where “and” joins values, the source holds several entries; their conditions need not be identical. Equal values may be shown once. Some results are limits rather than exact numbers.

Among the targets are Histamine H2 receptor (Homo sapiens, UniProt P25021); Histamine receptor H3 (Canis lupus familiaris, UniProt Q865E3); Hrh3 protein (Rattus norvegicus, UniProt Q5PPG3); Histamine H1 receptor (Homo sapiens, UniProt P35367); Histamine H4 receptor (Homo sapiens, UniProt Q9H3N8).
For test [1], the target named is T1, 5-hydroxytryptamine receptor 3A (Rattus norvegicus, UniProt P35563).
T1 sequence (P35563 whole entry): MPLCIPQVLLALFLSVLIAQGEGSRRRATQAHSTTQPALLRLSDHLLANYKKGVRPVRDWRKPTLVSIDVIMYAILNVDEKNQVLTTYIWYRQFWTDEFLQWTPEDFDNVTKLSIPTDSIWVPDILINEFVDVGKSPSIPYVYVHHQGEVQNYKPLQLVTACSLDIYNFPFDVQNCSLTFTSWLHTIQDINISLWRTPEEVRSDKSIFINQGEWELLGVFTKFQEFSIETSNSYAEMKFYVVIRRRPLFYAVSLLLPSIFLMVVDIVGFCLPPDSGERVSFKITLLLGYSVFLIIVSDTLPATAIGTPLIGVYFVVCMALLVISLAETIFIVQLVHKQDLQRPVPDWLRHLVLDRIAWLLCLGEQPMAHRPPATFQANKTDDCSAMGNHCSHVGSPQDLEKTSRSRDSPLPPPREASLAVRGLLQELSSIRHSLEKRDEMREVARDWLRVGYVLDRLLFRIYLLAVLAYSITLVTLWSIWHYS

In test [2] the target is T2, Alpha-2A adrenergic receptor (Homo sapiens, UniProt P08913).
T2 sequence (P08913 whole entry): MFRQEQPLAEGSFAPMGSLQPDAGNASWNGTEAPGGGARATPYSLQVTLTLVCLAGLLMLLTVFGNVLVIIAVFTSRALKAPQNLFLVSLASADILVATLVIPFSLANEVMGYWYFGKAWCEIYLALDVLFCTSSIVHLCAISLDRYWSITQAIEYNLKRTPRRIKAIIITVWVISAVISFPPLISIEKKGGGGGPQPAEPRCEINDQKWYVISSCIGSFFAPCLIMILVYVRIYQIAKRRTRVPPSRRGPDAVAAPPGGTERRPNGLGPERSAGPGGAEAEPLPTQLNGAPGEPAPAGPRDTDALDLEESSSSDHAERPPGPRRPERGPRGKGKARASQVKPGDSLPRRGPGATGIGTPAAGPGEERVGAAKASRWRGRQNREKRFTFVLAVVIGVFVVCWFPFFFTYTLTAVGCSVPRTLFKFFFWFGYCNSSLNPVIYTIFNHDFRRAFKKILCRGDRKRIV

In test [3] the target is T3, Alpha-2C adrenergic receptor (Homo sapiens, UniProt P18825).
T3 sequence (P18825 whole entry): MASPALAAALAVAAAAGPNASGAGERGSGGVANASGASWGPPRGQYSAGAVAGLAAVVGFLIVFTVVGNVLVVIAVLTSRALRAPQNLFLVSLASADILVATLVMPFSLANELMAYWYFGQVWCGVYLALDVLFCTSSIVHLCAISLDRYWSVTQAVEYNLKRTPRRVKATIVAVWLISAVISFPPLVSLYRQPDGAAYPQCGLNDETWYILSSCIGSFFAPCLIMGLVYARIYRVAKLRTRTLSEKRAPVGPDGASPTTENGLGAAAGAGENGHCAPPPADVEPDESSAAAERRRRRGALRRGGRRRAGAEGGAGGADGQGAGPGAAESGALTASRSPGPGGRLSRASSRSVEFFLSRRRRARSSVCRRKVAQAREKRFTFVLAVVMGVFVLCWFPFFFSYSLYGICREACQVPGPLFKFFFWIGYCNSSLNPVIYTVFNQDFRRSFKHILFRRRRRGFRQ

Test [4] concerns the target Histamine H3 receptor (Cavia porcellus, UniProt Q9JI35).
Test [5] deals with Histamine H3 receptor (Homo sapiens, UniProt Q9Y5N1).
Chain of Histamine H3 receptor (Homo sapiens, UniProt Q9Y5N1) (Q9Y5N1 whole entry): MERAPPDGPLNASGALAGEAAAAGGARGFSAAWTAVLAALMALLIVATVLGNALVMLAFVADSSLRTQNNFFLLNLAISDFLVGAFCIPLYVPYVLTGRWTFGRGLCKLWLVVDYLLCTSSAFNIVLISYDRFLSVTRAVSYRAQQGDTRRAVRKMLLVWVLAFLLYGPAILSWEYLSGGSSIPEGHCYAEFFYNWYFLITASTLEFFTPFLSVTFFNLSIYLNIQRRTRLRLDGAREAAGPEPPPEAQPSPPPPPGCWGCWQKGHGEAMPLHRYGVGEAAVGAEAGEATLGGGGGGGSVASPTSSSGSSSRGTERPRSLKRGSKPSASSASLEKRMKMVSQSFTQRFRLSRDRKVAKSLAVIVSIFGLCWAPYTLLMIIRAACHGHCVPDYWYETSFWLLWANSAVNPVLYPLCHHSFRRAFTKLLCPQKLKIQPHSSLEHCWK

Chain of Hrh3 protein (Q5PPG3 whole entry): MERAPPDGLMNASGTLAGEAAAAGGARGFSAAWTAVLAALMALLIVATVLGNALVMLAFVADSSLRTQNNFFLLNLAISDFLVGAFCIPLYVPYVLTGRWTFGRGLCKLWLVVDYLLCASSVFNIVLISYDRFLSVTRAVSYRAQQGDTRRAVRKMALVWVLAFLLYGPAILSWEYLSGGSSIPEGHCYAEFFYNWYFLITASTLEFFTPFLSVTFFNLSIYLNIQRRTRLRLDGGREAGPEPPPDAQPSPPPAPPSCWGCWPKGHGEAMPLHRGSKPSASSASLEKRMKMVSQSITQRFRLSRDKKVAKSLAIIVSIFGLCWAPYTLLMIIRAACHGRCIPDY
Chain of Histamine H1 receptor (P35367 whole entry): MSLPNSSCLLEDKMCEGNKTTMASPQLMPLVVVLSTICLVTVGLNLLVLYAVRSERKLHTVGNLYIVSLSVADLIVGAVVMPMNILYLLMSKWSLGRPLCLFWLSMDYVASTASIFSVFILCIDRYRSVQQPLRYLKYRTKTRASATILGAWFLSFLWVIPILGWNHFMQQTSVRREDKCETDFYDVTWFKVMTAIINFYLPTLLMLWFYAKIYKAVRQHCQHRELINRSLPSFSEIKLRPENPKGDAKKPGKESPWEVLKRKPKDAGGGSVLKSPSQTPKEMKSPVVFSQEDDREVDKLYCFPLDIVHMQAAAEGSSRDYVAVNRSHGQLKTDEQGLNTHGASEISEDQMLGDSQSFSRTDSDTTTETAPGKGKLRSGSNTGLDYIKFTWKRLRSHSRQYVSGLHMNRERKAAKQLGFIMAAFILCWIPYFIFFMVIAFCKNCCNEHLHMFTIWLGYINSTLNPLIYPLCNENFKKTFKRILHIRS
Chain of Histamine H4 receptor (Q9H3N8 whole entry): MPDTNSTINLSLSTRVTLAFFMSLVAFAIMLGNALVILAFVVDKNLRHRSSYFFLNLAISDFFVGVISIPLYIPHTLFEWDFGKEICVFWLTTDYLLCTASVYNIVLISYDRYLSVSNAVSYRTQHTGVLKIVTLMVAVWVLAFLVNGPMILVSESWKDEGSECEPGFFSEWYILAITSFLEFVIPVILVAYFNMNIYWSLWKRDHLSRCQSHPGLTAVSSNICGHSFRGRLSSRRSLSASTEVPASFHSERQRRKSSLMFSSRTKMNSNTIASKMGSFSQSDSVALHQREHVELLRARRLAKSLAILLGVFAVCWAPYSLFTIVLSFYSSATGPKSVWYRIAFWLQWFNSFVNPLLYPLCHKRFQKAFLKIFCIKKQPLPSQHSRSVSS
Chain of Histamine receptor H3 (Q865E3 whole entry): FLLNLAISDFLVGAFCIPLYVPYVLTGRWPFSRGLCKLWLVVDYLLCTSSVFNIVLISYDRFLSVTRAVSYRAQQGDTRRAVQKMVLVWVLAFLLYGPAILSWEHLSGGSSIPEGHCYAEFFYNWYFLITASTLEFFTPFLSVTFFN
Chain of Histamine H3 receptor (Cavia porcellus, UniProt Q9JI35) (Q9JI35 whole entry): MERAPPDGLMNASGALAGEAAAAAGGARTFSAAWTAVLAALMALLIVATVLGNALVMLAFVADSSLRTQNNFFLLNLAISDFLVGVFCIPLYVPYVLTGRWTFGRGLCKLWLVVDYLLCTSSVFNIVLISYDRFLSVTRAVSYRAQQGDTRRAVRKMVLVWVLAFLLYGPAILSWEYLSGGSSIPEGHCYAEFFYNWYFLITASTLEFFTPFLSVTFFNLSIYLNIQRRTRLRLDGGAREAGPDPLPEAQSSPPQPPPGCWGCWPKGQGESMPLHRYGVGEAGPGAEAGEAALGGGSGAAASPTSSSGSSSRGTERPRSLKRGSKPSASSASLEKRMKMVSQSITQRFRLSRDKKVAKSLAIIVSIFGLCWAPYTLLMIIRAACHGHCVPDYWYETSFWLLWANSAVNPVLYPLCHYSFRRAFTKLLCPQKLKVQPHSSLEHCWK
Chain of Histamine H2 receptor (P25021 whole entry): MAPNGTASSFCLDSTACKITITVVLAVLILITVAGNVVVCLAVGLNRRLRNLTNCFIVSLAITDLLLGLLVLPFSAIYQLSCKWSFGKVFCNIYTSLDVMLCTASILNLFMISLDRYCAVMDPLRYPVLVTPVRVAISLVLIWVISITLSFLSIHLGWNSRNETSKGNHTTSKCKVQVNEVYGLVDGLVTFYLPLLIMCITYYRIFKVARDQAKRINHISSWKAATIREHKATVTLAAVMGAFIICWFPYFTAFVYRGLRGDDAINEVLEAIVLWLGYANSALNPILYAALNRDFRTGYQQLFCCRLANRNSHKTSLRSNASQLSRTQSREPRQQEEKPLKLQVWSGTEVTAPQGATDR

Turning to `S=C(NC1CCCCC1)N1CCC(c2cnc[nH]2)CC1`, the Ki at Histamine H2 receptor is greater than 10 µM; in test [1], 2290 nM; on Histamine receptor H3, 6.76 nM; at Hrh3 protein it was 3.63 nM and 7.08 nM; at Histamine H1 receptor it was greater than 10 µM; in [2] it was 126 nM. Moreover, the Ki in [3] came out at 347 nM; on Histamine H3 receptor [4], 4.57 nM.

Turning to `O=C(c1ccc(OCCCc2cnc[nH]2)cc1)C1CC1`, the Ki at Histamine H2 receptor was greater than 10 µM; in [1], 302 nM; at Histamine receptor H3, 5.75 nM; at Hrh3 protein, 0.51 nM and 0.63 nM; at Histamine H1 receptor it was greater than 10 µM; in test [2], 42.7 nM. For the same compound, the Ki on Histamine H4 receptor turned out to be 1860 nM; at Histamine H3 receptor [4] it was 1.74 nM.

Regarding `C[C@@H](NC(=O)c1ccco1)C(=O)N1CCN(CCCOc2ccc(C(=O)C3CC3)cc2)CC1`, the Ki on Histamine H2 receptor was greater than 10 µM; in test [1] it was greater than 10000 nM; on Histamine receptor H3, 4.27 nM; at Hrh3 protein, 0.71 nM and 0.72 nM; on Histamine H1 receptor, 3.98 µM; in test [2], greater than 10000 nM. Further, the inhibitory constant (Ki) on Histamine H4 receptor was greater than 10000 nM; in test [3] it was 2400 nM; on Histamine H3 receptor [4], 2.4 nM.

Turning to `CCn1c(=O)[nH]c(=O)c2conc21` [A-304121], the Ki on Histamine H2 receptor is greater than 10 µM; at Histamine receptor H3 it was 46.8 nM; on Hrh3 protein it was 2.51 nM and 1.26 nM; on Histamine H1 receptor, greater than 10 µM; in test [2] it was greater than 10000 nM; at Histamine H4 receptor it was greater than 10000 nM. The Ki in [3] is 2880 nM; at Histamine H3 receptor [4] it was 17.4 nM; on Histamine H3 receptor [5], 759 nM and 813 nM.

In the case of `NC(=NCc1ccc(Cl)cc1)SCCCc1cnc[nH]1` [VUF 9153], the Ki on Histamine H2 receptor was determined as 2.51 µM; in [1], 7.41 nM; on Histamine receptor H3, 0.08 nM; on Histamine H1 receptor, 6.31 µM; in test [2], 17.4 nM; on Histamine H4 receptor, 41.7 nM. For the same compound, the Ki in test [3] is 15.9 nM; on Histamine H3 receptor [4], 0.22 nM.
